Assay results as given in US8476235B2 (Apotex Technologies Inc., priority 2006, dated 2013).
Values after ≈ are worked out from the molar mass of the structure shown. Read-outs that look alike come from different tables or passages of the source. Blank lines part the entries; values can stand above or below the compound they belong to.

How the values were obtained:
water solubility = assay type: physicochemical; details: in water, organic solvent free
[1] = speciation calculation using experimentally determined pKas (FIG. 8); assay type: physicochemical; details: pH 2.7, concentration 0.5M
Excerpt: FIG. 8 illustrates the speciation calculation of the dipeptide H-D-iGlu-D-Trp-OH and its salt using experimentally determined pKas of the acid and amine groups. LH2 is the diacid form of the peptide H-D-iGlu-D-Trp-OH, LH is the mono carboxylic acid salt of H-D-iGlu-D-Trp-OH. An example of such is the mono ammonium salt. L refers to the diacid salt form and one such example is the disodium salt of the peptide H-D-iGlu-D-Trp-OH.
The pKas of the acid and amine groups of H-D-iGlu-D-Trp-OH are experimentally determined. In FIG. 8, LH2 is thymodepressin, LH is the monocarboxylic acid salt, L is the dicarboxylic acid salt, and LH3 is the acid addition salt of thymodepressin. The X axis provides the pH of the solution. The Y axis provides the % formation relative to L (the default terminology of the software) and reports the molar fraction of the species present at a particular pH. The concentration of 0.5M is used to reflect the equivalency of 1 gm of thymodepressin in 6 ml water during isolation purposes. […] For this reason, thymodepressin precipitates at pH 2.7 and can be filtered. The mother liquor can be concentrated to obtain a second crop of thymodepressin. The plot confirms the theoretical prediction that the diacid form of H-D-iGlu-D-Trp-OH predominates at pH of about 2.5 to about 3.0, which is the pH for the isolation of the diacid from water as a precipitate. […]

pH of solution = assay type: physicochemical; details: in solution
[2] = solid form, cited from earlier work
[3] = HPLC method B
Protocol: In method B, the samples are analyzed with a normal reverse phase column, there is virtually no difference in the retention times of the samples.

water solubility (water solubility; listed as H-D-iGlu-D-Trp-OH): < 23 mg per mL | water solubility (water solubility; listed as crystalline thymodepressin): about 20 mg per mL | solubility (water solubility; water): ~23 mg/mL (≈ 69 mM) | molar fraction present as dicarboxylic acid form (LH2) [1]: about 75% | pH of a solution (pH of solution): about 3
Compound: N[C@H](CCC(=O)N[C@H](Cc1c[nH]c2ccccc12)C(=O)O)C(=O)O [thymodepressin, D-isoglutamyl-D-tryptophan]

Compound: D-isoglutamyl-D-tryptophan disodium salt
hygroscopicity (in words) ([2]; listed as D-isoglutamyl-D-tryptophan disodium salt): hygroscopic | hygroscopicity (in words) ([2]; disodium salt): extremely hygroscopic

purity at 254 nm after 2 years of storage [3]: 99.8%
Compound: D-isoglutamyl-D-tryptophan, mono ammonium salt (1:1)
